For one data set, the system named is IL-6. The data set is described as follows: Th1/Th2 cytokine measurement (Cytometric Bead Array) in LPS-stimulated Raw 264.7 cells, IL-6. The class given is cell-based, Murine. The conditions noted are these: compound at 20 µM, LPS 0.1 μg/mL, 24 h; stimulated untreated control 175.96 pg/mL. The procedure:
(§1) Raw 264.7 cells were seeded at 2 × 10^5 cells/mL in a 48-well microplate and allowed to adhere for 24 h, then treated with LPS 0.1 μg/mL and with compounds (1), (5) and (6) at 20 µM. Untreated cells and indomethacin (10 µM) were used as controls. After 24 h of incubation, the supernatant was collected and the amount of pro-inflammatory Th1 cytokines (IFN-γ, TNF-α, and IL-2) and anti-inflammatory Th2 cytokines (IL-4, IL-6, and IL-10) released measured. The experiment was performed according to the manufacturer’s instructions using BD™ Cytometric Bead Array (CBA) […] Th1/Th2 Cytokine Kit (BD-Biosciences), and data were acquired on a BD LSR Fortessa™ cell analyzer flow cytometer.

In another data set the target is T1, COX-2 (Mus musculus, UniProt Q05769).
T1 construct: The cell lysate was centrifuged at 12000 x g for 3 min and the supernatant was collected for COX activity assay; endogenous in cells
T1 sequence (Q05769 18-604): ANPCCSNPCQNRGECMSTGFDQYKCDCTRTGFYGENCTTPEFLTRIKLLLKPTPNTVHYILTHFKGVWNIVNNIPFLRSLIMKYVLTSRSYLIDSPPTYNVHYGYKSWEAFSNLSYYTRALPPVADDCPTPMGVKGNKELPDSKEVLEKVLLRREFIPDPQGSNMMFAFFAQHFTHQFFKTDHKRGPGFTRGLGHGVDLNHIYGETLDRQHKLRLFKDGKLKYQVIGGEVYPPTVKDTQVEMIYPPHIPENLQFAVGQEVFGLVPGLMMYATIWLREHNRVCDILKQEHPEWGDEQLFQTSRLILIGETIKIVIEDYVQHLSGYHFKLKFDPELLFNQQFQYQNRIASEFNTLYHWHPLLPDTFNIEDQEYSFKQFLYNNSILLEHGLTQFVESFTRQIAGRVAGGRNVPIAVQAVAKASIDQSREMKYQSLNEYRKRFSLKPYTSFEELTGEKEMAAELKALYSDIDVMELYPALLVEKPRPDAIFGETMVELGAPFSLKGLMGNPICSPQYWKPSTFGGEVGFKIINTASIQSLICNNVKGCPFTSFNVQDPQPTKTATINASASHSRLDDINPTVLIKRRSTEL
Kind of data set: Fluorometric COX activity assay in lysate of LPS-treated Raw 264.7 cells, COX-2. The settings on record: compound at 20 µM, LPS 0.1 μg/mL, 24 h; untreated control 99.85 µU/mg. The class given is cell-based, Murine. The procedure: (§2) The fluorometric cyclooxygenase activity assay kit (Biovision) was used to evaluate the activity of COX-1 and COX-2 enzymes. Raw 264.7 cells were seeded at 2 × 10^5 cells/mL in a 48-well microplate, and allowed to adhere for 24 h, then treated with LPS 0.1 μg/mL and compounds (1), (5) and (6) at 20 µM against Raw 264.7 cells. After 24 h the cyclooxygenase enzyme (COX-1 and COX-2) activity assay was performed. Cells were detached with TNE buffer (Tris 40 mM, NaCl 150 mM, EDTA 1 mM) and washed with PBS (1x), then re-suspended in 1 mL PBS (1x), transferred into 1.5 mL tube, and centrifuged at 500 x g for 3 min. The pellet was then re-suspended in 0.5 mL of lysis buffer with a protease inhibitor cocktail, vortexed, and incubated at 4°C for 5 min. The cell lysate was centrifuged at 12000 x g for 3 min and the supernatant was collected for COX activity assay. The COX activity was assessed using the fluorometric cyclooxygenase activity assay kit (Biovision) following the manufacturer’s instructions. The assay includes COX-1 and COX-2 specific inhibitors to differentiate the activity of COX-1 and COX-2 as well as other peroxidases. Indomethacin (10 µM) was used as a standard drug and appropriate controls were also included.

The target in another data set is T2, COX-1 (Mus musculus, UniProt P22437).
T2 construct: The cell lysate was centrifuged at 12000 x g for 3 min and the supernatant was collected for COX activity assay; endogenous in cells
T2 sequence (P22437 27-602): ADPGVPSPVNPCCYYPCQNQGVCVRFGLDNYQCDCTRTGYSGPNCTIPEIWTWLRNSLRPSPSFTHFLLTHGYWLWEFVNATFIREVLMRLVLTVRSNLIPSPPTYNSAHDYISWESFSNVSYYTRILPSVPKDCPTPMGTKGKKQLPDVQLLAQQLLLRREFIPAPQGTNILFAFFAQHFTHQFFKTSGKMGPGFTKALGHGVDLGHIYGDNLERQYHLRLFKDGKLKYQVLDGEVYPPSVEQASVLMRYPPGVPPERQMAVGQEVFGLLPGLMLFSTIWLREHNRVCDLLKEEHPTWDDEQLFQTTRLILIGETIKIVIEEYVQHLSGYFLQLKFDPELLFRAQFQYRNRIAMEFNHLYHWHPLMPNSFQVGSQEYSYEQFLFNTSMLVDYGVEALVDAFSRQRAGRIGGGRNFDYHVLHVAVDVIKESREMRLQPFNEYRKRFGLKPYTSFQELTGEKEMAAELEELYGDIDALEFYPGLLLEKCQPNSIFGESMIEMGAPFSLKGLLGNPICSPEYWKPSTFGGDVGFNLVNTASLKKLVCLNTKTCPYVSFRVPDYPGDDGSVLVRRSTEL
Kind of data set: Fluorometric COX activity assay in lysate of LPS-treated Raw 264.7 cells, COX-1. Type of data set: cell-based, Murine. The settings on record: compound at 20 µM, LPS 0.1 μg/mL, 24 h; untreated control 85.19 µU/mg. The procedure: as §2

The subject of a further data set is IL-2. The data set is described as follows: Th1/Th2 cytokine measurement (Cytometric Bead Array) in LPS-stimulated Raw 264.7 cells, IL-2. The class given is cell-based, Murine. The conditions noted are these: compound at 20 µM, vs stimulated and untreated control. On the procedure: as §1

Results on three compounds are retold here after paper PMC11180795 (Frontiers in Pharmacology, 2024).

In general, melting point refers to the temperature of the solid-liquid transition.

On to `CC(C)=CCc1c2c(c3oc4c(O)cccc4c(=O)c3c1O)C=CC(C)(C)O2` [Compound 1, Ananixanthone], for which the IL-6 level with IL-6 was determined as 144.25 pg/mL. In addition, at COX-2, the COX-2 activity came to 59.33 µU/mg. The COX-1 activity at COX-1 was found to be 52.55 µU/mg.
The compound `CC(C)=CCC/C(C)=C/C[C@]12C[C@@H](CC=C(C)C)C(C)(C)[C@](C/C=C(\C)CCC=C(C)C)(C(=O)C(C(=O)c3ccc(O)c(O)c3)=C1O)C2=O` [Compound 5, Guttiferone O] registered a melting point of 103 °C. For the same compound, at COX-2, the COX-2 activity was 88.10 µU/mg. Also, on COX-1, the COX-1 activity came to 32.28 µU/mg. Moreover, the “effect on IL-2 production (in words)” value in the data set on IL-2 is listed as “significantly reduces”.
On to `CC(C)=CCC/C(C)=C/C[C@]12C[C@@H](CC=C(C)C)C(C)(C)[C@](CC=C(C)C)(C(=O)C(C(=O)c3ccc(O)c(O)c3)=C1O)C2=O` [Compound 6, Guttiferone M], for which the melting point is 82 °C. The same compound returned a COX-2 activity at COX-2 of 43.84 µU/mg. For the same compound, the “effect on IL-2 production (in words)” value in the data set on IL-2 is “limited effect”.
